US11260083B2, “Compositions and methods for treating and preventing graft versus host disease” (The Regents of the University of Michigan, priority 2016, dated 2022)

What was measured:
[1] = mouse, in vivo
Description: Animals were intragastrically gavaged with a bolus (2 g/kg) of either labeled ^13C2-Butyrate or non-labeled ^12C-Butyrate. The small and large intestines were then harvested 6 hours later and prepared for analysis as above. […] The ratio of the labeled to unlabeled peak areas were adjusted to incorporate natural distribution of ^13C label and expressed as percentage of ^13C incorporation into the butyrate pool in the luminal contents (Lumen) and intestinal tissue.
It was next determined whether there was a difference in the uptake and metabolism of the exogenously administered butyrate between the syngeneic and allogeneic recipients. To this end, metabolic flux analysis (MFA) assessing label incorporation of heavy 13C labeled butyrate into luminal and intestinal tissue butyrate pools was performed by utilizing GC/MS as above. Recipients of syngeneic and allogeneic transplant were treated 7 days after BMT with a bolus of either^13C-butyrate or regular ^12C-butyrate, which served as the control. The IECs and luminal contents were harvested 6 hours later and analyzed for incorporation of ^13C.

SLC5A8 = experiment: Primary IECs cultured with proinflammatory mediators; assay type: cell-based, mouse; details: primary IECs exposed to IFN-γ and/or TNF
Description: It was next explored whether the diminished concentration of butyrate observed in the intestinal tissue was from impaired uptake of butyrate following allo-BMT. To this end, the expression of the known butyrate monocarboxylate transporter (SLC5A8) and the receptor of butyrate (GPR43) was analyzed in IECs following allo-BMT (Ganapathy, V., Thangaraju, M., Prasad, P. D., Martin, P. M. & Singh, N. Transporters and receptors for short-chain fatty acids as the molecular link between colonic bacteria and the host. Curr Opin Pharmacol 13, 869-874 (2013); Furusawa, Y. et al. Commensal microbe-derived butyrate induces the differentiation of colonic regulatory T cells. Nature (2013)). […] Primary IECs were cultured with proinflammatory mediators (IFN-γ and/or TNF) and expression of the butyrate transporter SLC5A8 was analyzed.

[2] = IECs from large intestine, allogeneic vs syngeneic recipients

Row | Molecule | heavy carbon in malate [2] | incorporation into succinate [2] | 13C incorporation in malate (IECs from small and large intestines combined, allo-BMT vs syngeneic) | 13C heavy butyrate in the intestinal tissue [1] | expression of Slc5a8 (SLC5A8)
1 | CC[13CH2][13C](=O)[O-].[Na+] [^13C-butyrate, Sodium butyrate-1,2-^13C2] | significant difference | trend towards greater incorporation | overall increased level | significantly decreased | 
2 | IFN-γ: proinflammatory mediator (protein, UniProt P01579 24-161, looked up) Interferon gamma: QDPYVKEAENLKKYFNAGHSDVADNGTLFLGILKNWKEESDRKIMQSQIVSFYFKLFKNFKDDQSIQKSVETIKEDMNVKFFNSNKKKRDDFEKLTNYSVTDLNVQRKAIHELIQVMAELSPAAKTGKRKRSQMLFRG |  |  |  |  | significantly decreased
